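Method: 48-hour compound exposure of cells in 96-well plates, five concentrations, linear interpolation of endpoints. At the GI50, growth is halved. TGI is the concentration that stops growth completely.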
Key:
Test in all cases: NCI-60 cell line screen, 48 h
OVCAR-5 ovarian = tested on: OVCAR-5 ovarian
HS 578T breast = tested on: HS 578T breast
SK-MEL-2 melanoma = tested on: SK-MEL-2 melanoma
HCT-15 colon = tested on: HCT-15 colon
U251 CNS = tested on: U251 CNS
HOP-92 NSCLC = tested on: HOP-92 NSCLC
KM12 colon = tested on: KM12 colon
786-0 renal = tested on: 786-0 renal
SF-295 CNS = tested on: SF-295 CNS
UACC-257 melanoma = tested on: UACC-257 melanoma
HCT-116 colon = tested on: HCT-116 colon
NCI-H226 lung = tested on: NCI-H226 lung
SN12C renal = tested on: SN12C renal
NCI-H460 lung = tested on: NCI-H460 lung
COLO 205 colon = tested on: COLO 205 colon
SNB-19 CNS = tested on: SNB-19 CNS
HT29 colon = tested on: HT29 colon
NCI-H23 lung = tested on: NCI-H23 lung
HCC-2998 colon = tested on: HCC-2998 colon
UO-31 renal = tested on: UO-31 renal
MCF7 breast = tested on: MCF7 breast
LOX IMVI melanoma = tested on: LOX IMVI melanoma
M14 melanoma = tested on: M14 melanoma
OVCAR-8 ovarian = tested on: OVCAR-8 ovarian
SF-539 CNS = tested on: SF-539 CNS
HL-60(TB) leukemia = tested on: HL-60(TB) leukemia
NCI/ADR-RES ovarian = tested on: NCI/ADR-RES ovarian
EKVX NSCLC = tested on: EKVX NSCLC
OVCAR-3 ovarian = tested on: OVCAR-3 ovarian
HOP-62 NSCLC = tested on: HOP-62 NSCLC
SK-OV-3 ovarian = tested on: SK-OV-3 ovarian
MDA-MB-231 breast = tested on: MDA-MB-231 breast
RXF 393 renal = tested on: RXF 393 renal
SR leukemia = tested on: SR leukemia
BT-549 breast = tested on: BT-549 breast
A549 NSCLC = tested on: A549 NSCLC
SK-MEL-28 melanoma = tested on: SK-MEL-28 melanoma
ACHN renal = tested on: ACHN renal
CCRF-CEM leukemia = tested on: CCRF-CEM leukemia
T-47D breast = tested on: T-47D breast
OVCAR-4 ovarian = tested on: OVCAR-4 ovarian
SNB-75 CNS = tested on: SNB-75 CNS
TK-10 renal = tested on: TK-10 renal
SF-268 CNS = tested on: SF-268 CNS
PC-3 prostate = tested on: PC-3 prostate
SK-MEL-5 melanoma = tested on: SK-MEL-5 melanoma
DU-145 prostate = tested on: DU-145 prostate
NCI-H522 lung = tested on: NCI-H522 lung
CAKI-1 renal = tested on: CAKI-1 renal
MALME-3M melanoma = tested on: MALME-3M melanoma
A498 renal = tested on: A498 renal
MOLT-4 leukemia = tested on: MOLT-4 leukemia
MDA-MB-435 = tested on: MDA-MB-435
RPMI-8226 leukemia = tested on: RPMI-8226 leukemia
SW-620 colon = tested on: SW-620 colon
UACC-62 melanoma = tested on: UACC-62 melanoma
K-562 leukemia = tested on: K-562 leukemia
IGROV1 ovarian = tested on: IGROV1 ovarian

With `Cc1cc(Oc2ccccc2)ccc1Nc1ncnc2ccc(-c3cnc(Cl)c(NS(C)(=O)=O)c3)cc12` the GI50 (OVCAR-5 ovarian) was 544 nM, the TGI (OVCAR-5 ovarian) was 3660 nM and the GI50 (HS 578T breast) was 587 nM. The TGI (HS 578T breast) was 6810 nM, the GI50 (SK-MEL-2 melanoma) was 1390 nM and the TGI (SK-MEL-2 melanoma) was 3770 nM. It also gave a GI50 (HCT-15 colon) of 1730 nM, a TGI (HCT-15 colon) of 10700 nM and a GI50 (U251 CNS) of 2190 nM. It also gave a TGI (U251 CNS) of 10500 nM, a GI50 (HOP-92 NSCLC) of 246 nM and a TGI (HOP-92 NSCLC) of 1380 nM. For the same compound, the GI50 (KM12 colon) was 2170 nM, the TGI (KM12 colon) was 7430 nM and the GI50 (786-0 renal) was 2230 nM. It also gave a TGI (786-0 renal) of 14000 nM, a GI50 (SF-295 CNS) of 1090 nM and a TGI (SF-295 CNS) of 5430 nM. The GI50 (UACC-257 melanoma) was 1950 nM, the TGI (UACC-257 melanoma) was 8260 nM and the GI50 (HCT-116 colon) was 2510 nM. For the same compound, the TGI (HCT-116 colon) was 13300 nM, the GI50 (NCI-H226 lung) was 3660 nM and the TGI (NCI-H226 lung) was 20100 nM. For the same compound, the GI50 (SN12C renal) was 2160 nM, the TGI (SN12C renal) was 12500 nM and the GI50 (NCI-H460 lung) was 1710 nM. It also gave a TGI (NCI-H460 lung) of 12500 nM, a GI50 (COLO 205 colon) of 1450 nM and a TGI (COLO 205 colon) of 3780 nM. The GI50 (SNB-19 CNS) was 2200 nM, the TGI (SNB-19 CNS) was 7070 nM and the GI50 (HT29 colon) was 1500 nM. For the same compound, the TGI (HT29 colon) was 12100 nM, the GI50 (NCI-H23 lung) was 2180 nM and the TGI (NCI-H23 lung) was 9560 nM. It also gave a GI50 (HCC-2998 colon) of 1580 nM, a TGI (HCC-2998 colon) of 3750 nM and a GI50 (UO-31 renal) of 604 nM. The TGI (UO-31 renal) was 3650 nM, the GI50 (MCF7 breast) was 282 nM and the TGI (MCF7 breast) was 13100 nM. The GI50 (LOX IMVI melanoma) was 964 nM, the TGI (LOX IMVI melanoma) was 4000 nM and the GI50 (M14 melanoma) was 2040 nM. The TGI (M14 melanoma) was 12900 nM, the GI50 (OVCAR-8 ovarian) was 3390 nM and the TGI (OVCAR-8 ovarian) was 19000 nM. It also gave a GI50 (SF-539 CNS) of 1010 nM, a TGI (SF-539 CNS) of 3620 nM and a GI50 (HL-60(TB) leukemia) of 1550 nM. The TGI (HL-60(TB) leukemia) was 13700 nM, the GI50 (NCI/ADR-RES ovarian) was 3120 nM and the TGI (NCI/ADR-RES ovarian) was > 100000 nM. It also gave a GI50 (EKVX NSCLC) of 1490 nM, a TGI (EKVX NSCLC) of 10600 nM and a GI50 (OVCAR-3 ovarian) of 855 nM. The TGI (OVCAR-3 ovarian) was 2600 nM, the GI50 (HOP-62 NSCLC) was 2840 nM and the TGI (HOP-62 NSCLC) was 18300 nM. The GI50 (SK-OV-3 ovarian) was 505 nM, the TGI (SK-OV-3 ovarian) was 4200 nM and the GI50 (MDA-MB-231 breast) was 1620 nM. It also gave a TGI (MDA-MB-231 breast) of 4220 nM, a GI50 (RXF 393 renal) of 1320 nM and a TGI (RXF 393 renal) of 3840 nM. The GI50 (SR leukemia) was 1770 nM, the TGI (SR leukemia) was 5560 nM and the GI50 (BT-549 breast) was 1160 nM. The TGI (BT-549 breast) was 4500 nM, the GI50 (A549 NSCLC) was 2030 nM and the TGI (A549 NSCLC) was 6160 nM. It also gave a GI50 (SK-MEL-28 melanoma) of 745 nM, a TGI (SK-MEL-28 melanoma) of 5530 nM and a GI50 (ACHN renal) of 2450 nM. The TGI (ACHN renal) was 15500 nM, the GI50 (CCRF-CEM leukemia) was 1320 nM and the TGI (CCRF-CEM leukemia) was 15600 nM. The GI50 (T-47D breast) was 185 nM, the TGI (T-47D breast) was 1370 nM and the GI50 (OVCAR-4 ovarian) was 2150 nM. For the same compound, the TGI (OVCAR-4 ovarian) was 10500 nM, the GI50 (SNB-75 CNS) was 277 nM and the TGI (SNB-75 CNS) was 3410 nM. The GI50 (TK-10 renal) was 1790 nM, the TGI (TK-10 renal) was 20800 nM and the GI50 (SF-268 CNS) was 1640 nM. It also gave a TGI (SF-268 CNS) of 12600 nM, a GI50 (PC-3 prostate) of 1450 nM and a TGI (PC-3 prostate) of 10500 nM. The GI50 (SK-MEL-5 melanoma) was 1550 nM, the TGI (SK-MEL-5 melanoma) was 3000 nM and the GI50 (DU-145 prostate) was 2040 nM. For the same compound, the TGI (DU-145 prostate) was 12100 nM, the GI50 (NCI-H522 lung) was 2300 nM and the TGI (NCI-H522 lung) was 10300 nM. The GI50 (CAKI-1 renal) was 1040 nM, the TGI (CAKI-1 renal) was 5980 nM and the GI50 (MALME-3M melanoma) was 612 nM. It also gave a TGI (MALME-3M melanoma) of 3790 nM, a GI50 (A498 renal) of 1380 nM and a TGI (A498 renal) of 3970 nM. For the same compound, the GI50 (MOLT-4 leukemia) was 1510 nM, the TGI (MOLT-4 leukemia) was 5150 nM and the GI50 (MDA-MB-435) was 1260 nM. It also gave a TGI (MDA-MB-435) of 3480 nM, a GI50 (RPMI-8226 leukemia) of 2180 nM and a TGI (RPMI-8226 leukemia) of 6070 nM. The GI50 (SW-620 colon) was 2380 nM, the TGI (SW-620 colon) was 13100 nM and the GI50 (UACC-62 melanoma) was 625 nM. For the same compound, the TGI (UACC-62 melanoma) was 2110 nM, the GI50 (K-562 leukemia) was 3580 nM and the TGI (K-562 leukemia) was > 100000 nM. It also gave a GI50 (IGROV1 ovarian) of 227 nM and a TGI (IGROV1 ovarian) of 1130 nM.
